Assay results as given in paper PMC7395068, “The evolution of strategies to minimise the risk of human drug-induced liver injury (DILI) in drug discovery and development” (Archives of Toxicology, 2020).
Like-named read-outs stand apart in the source and are kept apart here.

Key:
[1] = in vivo; cited from earlier work
[2] = test system: HepaRG spheroids; test: Combined HCI (HCS) and cellular ATP 3D assay in HepaRG spheroids; settings: for HepaRG <25x Avg Cmax ATP / HepaRG <100x Avg Cmaxu ATP: ATP endpoint; for HepaRG <25x Avg Cmax ATP / HepaRG <25x Avg Cmax HCS / HepaRG <25x Avg Cmax All: cut-off <25x Avg Cmax; for HepaRG <100x Avg Cmaxu ATP / HepaRG <100x Avg Cmaxu HCS / HepaRG <100x Avg Cmaxu All: cut-off <100x Avg Cmaxu; for HepaRG <25x Avg Cmax HCS / HepaRG <100x Avg Cmaxu HCS: HCS endpoints; for HepaRG <25x Avg Cmax All: all endpoints (ATP and HCS); for HepaRG Cmax max All / HepaRG Cmax min All / HepaRG <10 uM All / HepaRG <100x Avg Cmaxu All: all endpoints; for HepaRG Cmax max All: Cmax max used; for HepaRG Cmax min All: Cmax min used; for HepaRG <10 uM All: cut-off <10 uM; for AC50 / minimal effective concentration: Homo sapiens; for HepaRG <25x Avg Cmax ATP / HepaRG <100x Avg Cmaxu ATP / HepaRG <25x Avg Cmax HCS / HepaRG <100x Avg Cmaxu HCS / HepaRG <25x Avg Cmax All / HepaRG Cmax max All / HepaRG Cmax min All / HepaRG <10 uM All / HepaRG <100x Avg Cmaxu All / AC50 / minimal effective concentration: HepaRG
[3] = test system: PHH; settings: cited from earlier work
[4] = plasma free fraction; cited from earlier work
[5] = Plasma free fraction (fu) and unbound Cmax (Cmax,u); type: in vitro ADME, human; settings: unbound plasma Cmax
Protocol: The prediction of DILI severity was evaluated further using the 3D combined HCI assays using plasma-free fraction. The majority of fu values were obtained from literature, when unavailable in-house prediction was utilised. Unbound plasma Cmax concentrations (Cmax,u) were derived by multiplying total plasma Cmax with the corresponding free fraction (fu) for each compound.

[6] = test system: hLiMTs; settings: cited from earlier work
[7] = test system: THLE or HepG2 cells, isolated mitochondria, BSEP; settings: cited from earlier work
[8] = test system: hLiMTs; test: Combined HCI (HCS) and cellular ATP 3D assay in hLiMTs; settings: for minimal effective concentration / AC50: Homo sapiens; for hLiMTs <25x Avg Cmax ATP / hLiMTs <100x Avg Cmaxu ATP: ATP endpoint; for hLiMTs <25x Avg Cmax ATP / hLiMTs <25x Avg Cmax HCS / hLiMTs <25x Avg Cmax All: cut-off <25x Avg Cmax; for hLiMTs <100x Avg Cmaxu ATP / hLiMTs <100x Avg Cmaxu HCS / hLiMTs <100x Avg Cmaxu All: cut-off <100x Avg Cmaxu; for hLiMTs <25x Avg Cmax HCS / hLiMTs <100x Avg Cmaxu HCS: HCS endpoints; for hLiMTs <25x Avg Cmax All: all endpoints (ATP and HCS); for hLiMTs Cmax max All / hLiMTs Cmax min All / hLiMTs <10 uM All / hLiMTs <100x Avg Cmaxu All: all endpoints; for hLiMTs Cmax max All: Cmax max used; for hLiMTs Cmax min All: Cmax min used; for hLiMTs <10 uM All: cut-off <10 uM
[9] = in vivo; cited from earlier work; remark: listed apart in the source
[10] = read-out: Human plasma Cmax; total plasma Cmax.tot, median of 9 literature references; cited from earlier work
[11] = test system: HepG2 cells, primary human hepatocytes; settings: In vitro Assay; ref Garside 2014; cited from earlier work
[12] = test system: PHH spheroids; settings: In vitro Assay; ref Vorrink 2018; cited from earlier work
[13] = test system: isolated mouse liver mitochondria; settings: In vitro Assay; ref Porceddu 2012; cited from earlier work
[14] = test system: human hepatocytes; settings: In vitro Assay; ref Xu 2008; cited from earlier work
[15] = Microtissue model structural based (HCI), combined HCS and ATP, MEC < 25 × Cmax.tot cut-off
[16] = In vitro Assay, ref Proctor 2017

Nc1cc(N2CCCCC2)nc(N)[n+]1[O-] [minoxidil]
Assigned DILI category [1]: 1 | In vivo DILI [1]: -VE | HepaRG <25x Avg Cmax ATP [2]: -ve | HepaRG <100x Avg Cmaxu ATP [2]: -ve | HepaRG <25x Avg Cmax HCS [2]: -ve | HepaRG <100x Avg Cmaxu HCS [2]: -ve | HepaRG <25x Avg Cmax All [2]: -ve | HepaRG Cmax max All [2]: -ve | HepaRG Cmax min All [2]: -ve | HepaRG <10 uM All [2]: -ve | HepaRG <100x Avg Cmaxu All [2]: -ve | DILI prediction HepaRG spheroids (HCS-MEC) [2, 15]: -VE | PHH/100uM, Proctor (2017) ([3]; 2D PHH, ATP, IC50 threshold 100 µM, ref Proctor et al. 2017): -VE | PHH ATP <100uM [3, 16]: -VE | fu [4]: 0.990 | Human plasma Cmax,u [5]: 1183 nM | hLiMTs ATP <100uM [6, 16]: -VE | hLiMTs/100uM, Proctor (2017) ([6]; hLiMTs, ATP, IC50 threshold 100 µM, ref Proctor et al. 2017): -VE | Partition Hybrid HRM Score ≥8, Aleo (2019) [7]: -VE | Rule of Two hybrid HRM Score ≥8, Aleo (2019) [7]: -VE | minimal effective concentration ([8]; read-out: HCS endpoint MEC): 111 µM | DILI prediction hLiMTs (HCS-MEC) [8, 15]: -VE | hLiMTs <25x Avg Cmax ATP [8]: -ve | hLiMTs <100x Avg Cmaxu ATP [8]: -ve | hLiMTs <25x Avg Cmax HCS [8]: -ve | hLiMTs <100x Avg Cmaxu HCS [8]: +ve (<100x Avg Cmaxu) | hLiMTs <25x Avg Cmax All [8]: -ve | hLiMTs Cmax max All [8]: -ve | hLiMTs Cmax min All [8]: -ve | hLiMTs <10 uM All [8]: -ve | hLiMTs <100x Avg Cmaxu All [8]: +ve (<100x Avg Cmaxu) | DILI +VE (5-8), DILI -VE (-4) [9]: -VE | DILI severity category (Chen 2016) [9]: No | DILI severity category (Chen et al. [2016]) [9]: No | Cmax [10]: 1200 nM

CC/C(=C(\c1ccccc1)c1ccc(OCCN(C)C)cc1)c1ccccc1 [tamoxifen]
Cluster 1-6 +VE Assay [11]: +VE | hLiMTs ATP <20 x Cmax [12]: +VE (IC20 < 20 × Cmax.tot cut-off) | HepaRG <25x Avg Cmax ATP [2]: -ve | HepaRG <100x Avg Cmaxu ATP [2]: -ve | HepaRG <25x Avg Cmax HCS [2]: +ve | HepaRG <100x Avg Cmaxu HCS [2]: -ve | HepaRG <25x Avg Cmax All [2]: +ve | HepaRG Cmax max All [2]: +ve | HepaRG Cmax min All [2]: +ve | HepaRG <10 uM All [2]: +ve (<10 uM) | HepaRG <100x Avg Cmaxu All [2]: -ve | AC50 ([2]; read-out: ATP endpoint AC50): 12.7 µM | minimal effective concentration ([2]; read-out: ATP endpoint MEC): 10.8 µM | AC50 ([2]; read-out: HCS endpoint AC50): 16.7 µM | minimal effective concentration ([2]; read-out: HCS endpoint MEC): 3.52 µM | fu [4]: 0.010 | Human plasma Cmax,u [5]: 3 nM | in vitro data EC2<=1x Cmax [13]: +VE | in vitro data EC20<=2uM [13]: +VE | AC50 ([8]; read-out: ATP endpoint AC50): 6.13 µM | minimal effective concentration ([8]; read-out: ATP endpoint MEC): 3.93 µM | AC50 ([8]; read-out: HCS endpoint AC50): 7.49 µM | minimal effective concentration ([8]; read-out: HCS endpoint MEC): 1.97 µM | hLiMTs <25x Avg Cmax ATP [8]: +ve | hLiMTs <100x Avg Cmaxu ATP [8]: -ve | hLiMTs <25x Avg Cmax HCS [8]: +ve | hLiMTs <100x Avg Cmaxu HCS [8]: -ve | hLiMTs <25x Avg Cmax All [8]: +ve | hLiMTs Cmax max All [8]: +ve | hLiMTs Cmax min All [8]: +ve | hLiMTs <10 uM All [8]: +ve (<10 uM) | hLiMTs <100x Avg Cmaxu All [8]: -ve | Structural based (HCI) [14]: -VE | Cmax [10]: 320 nM
